Publication PMC9161374 (Science Translational Medicine, 2022)
Values joined by “and” are separate entries in the source; they are usually repeats but may differ in a detail not shown here. Equal entries are not always repeated. Where two headings read alike, the source gives them in different places.

Experiments:
[1] = test system: SARS-CoV-2 (Beta, B.1.351); experiment: microbe, parasite or virus in culture; format: cell-based; settings: for % Inhibition: beta, listed as Remdsivir
COVID-19 = test system: COVID-19; set-up: method as in PMID 34937145; settings: administered early to non-hospitalized, high-risk patients ref 27; cited from earlier work
SARS-CoV-2 (B.1) = experiment: Anti-SARS-CoV-2 activity in Vero E6 cells (viral yield by qRT-PCR); format: cell-based; settings: for % Inhibition: listed as Remdsivir
[2] = CCK-8 cell viability assay; format: cell-based, African green monkey; settings: African green monkey; Vero E6 cells, 48 h, CCK8
Experimental: To investigate the effect of drugs on cell viability, Vero E6 cells were seeded in 96-well plates at a density of 20,000 cells per well and were treated with drugs at indicated concentrations (0, 0.01, 0.1, 1, 5, 10, 50, 75, 100, 200 μM) for 48 hours. Cell viability was tested by using Cell Counting Kit-8 (CCK-8, Bimake, B34302). The figures were plotted from cell viability percentage versus the drug concentrations using GraphPad Prism 6 software.
Fig. S4. Cytotoxicity assay of compounds in Vero E6 cells.
Vero E6 cells were plated in 96-well plates and treated with increasing concentrations
of each indicated compound, ranging from 0 to 200 μM, for 48 hours. Cell viability was
tested using Cell Counting Kit-8 (CCK-8). Data are presented as mean ± SD.

[3] = test system: SARS-CoV-2 (Omicron, B.1.1.529); experiment: microbe, parasite or virus in culture
[4] = test system: SARS-CoV-2 (Delta, B.1.617.2); experiment: microbe, parasite or virus in culture; format: cell-based; settings: for % Inhibition: delta, listed as Remdsivir
[5] = test system: SARS-CoV-2 (Omicron, B.1.1.529); settings: Omicon, Vero E6, replicates, listed as Remdsivir
[6] = Severe acute respiratory syndrome coronavirus 2, Vero C1008, read-out: EC90 (Confidence 95%)

Compound `CCC(CC)COC(=O)[C@H](C)N[P@](=O)(OC[C@H]1O[C@@](C#N)(c2ccc3c(N)ncnn23)[C@H](O)[C@@H]1O)Oc1ccccc1` [Remdesivir, remdesivir, reference compound] has an EC50 ([1]; Severe acute respiratory syndrome coronavirus 2, Vero C1008, 48 h, read-out: EC50 in Vero E6 cells, SARS-CoV-2 (Beta, B.1.351)) of 1.78 µM, an inhibition at 0.01 µM ([1]; Severe acute respiratory syndrome coronavirus 2, Vero C1008, beta, 0.01 uM, Vero E6, replicates) of 0% and an inhibition at 0.1 µM ([1]; Severe acute respiratory syndrome coronavirus 2, Vero C1008, beta, 0.1 uM, Vero E6, replicates) of 0%. The inhibition at 0.25 µM ([1]; Severe acute respiratory syndrome coronavirus 2, Vero C1008, beta, 0.25 uM, Vero E6, replicates) was 0%, the inhibition at 0.5 µM ([1]; Severe acute respiratory syndrome coronavirus 2, Vero C1008, beta, 0.5 uM, Vero E6, replicates) was 0% and the inhibition at 2 µM ([1]; Severe acute respiratory syndrome coronavirus 2, Vero C1008, beta, 2 uM, Vero E6, replicates) was 65.2%. It also gave an inhibition at 5 µM ([1]; Severe acute respiratory syndrome coronavirus 2, Vero C1008, beta, 5 uM, Vero E6, replicates) of 86.2%, an inhibition at 10 µM ([1]; Severe acute respiratory syndrome coronavirus 2, Vero C1008, beta, 10 uM, Vero E6, replicates) of 99.9% and an inhibition at 50 µM ([1]; Severe acute respiratory syndrome coronavirus 2, Vero C1008, beta, 50 uM, Vero E6, replicates) of 99.9%. For the same compound, the EC90 ([1]; Severe acute respiratory syndrome coronavirus 2, Vero C1008, read-out: EC90 (Confidence 95%), Vero-E6, Beta B.1.351) was 5.02 µM, the “% Inhibition” value ([1]; 1 uM, Vero E6, replicates) was 35.9868% and 14.2725% and the “% Inhibition” value ([1]; 2 uM, Vero E6, replicates) was 49.345%. For the same compound, the “% Inhibition” value ([1]; 5 uM, Vero E6, replicates) was 85.4168%, the “% Inhibition” value ([1]; 10 uM, Vero E6, replicates) was 99.9589% and the “% Inhibition” value ([1]; 50 uM, Vero E6, replicates) was 99.9256%. For the same compound, the “reduction of the risk of hospitalization or death” value (COVID-19) was 87%, the “% Inhibition” value (SARS-CoV-2 (B.1); B.1, 2 uM, Vero E6, replicates, 2 µM) was 36.1424% and the “% Inhibition” value (SARS-CoV-2 (B.1); B.1, 5 uM, Vero E6, replicates, 5 µM) was 93.823%. The “% Inhibition” value (SARS-CoV-2 (B.1); B.1, 10 uM, Vero E6, replicates, 10 µM) was 98.7241%, the “% Inhibition” value (SARS-CoV-2 (B.1); B.1, 50 uM, Vero E6, replicates, 50 µM) was 99.0519% and the inhibition at 0.01 µM (SARS-CoV-2 (B.1); Severe acute respiratory syndrome coronavirus 2, Vero C1008, B.1, 0.01 uM, Vero E6, replicates) was 0%. For the same compound, the inhibition at 0.1 µM (SARS-CoV-2 (B.1); Severe acute respiratory syndrome coronavirus 2, Vero C1008, B.1, 0.1 uM, Vero E6, replicates) was 0%, the inhibition at 0.25 µM (SARS-CoV-2 (B.1); Severe acute respiratory syndrome coronavirus 2, Vero C1008, B.1, 0.25 uM, Vero E6, replicates) was 0% and the inhibition at 0.5 µM (SARS-CoV-2 (B.1); Severe acute respiratory syndrome coronavirus 2, Vero C1008, B.1, 0.5 uM, Vero E6, replicates) was 0%. The inhibition at 1 µM (SARS-CoV-2 (B.1); Severe acute respiratory syndrome coronavirus 2, Vero C1008, B.1, 1 uM, Vero E6, replicates) was 0%, the inhibition at 2 µM (SARS-CoV-2 (B.1); Severe acute respiratory syndrome coronavirus 2, Vero C1008, B.1, 2 uM, Vero E6, replicates) was 39.1% and the inhibition at 5 µM (SARS-CoV-2 (B.1); Severe acute respiratory syndrome coronavirus 2, Vero C1008, B.1, 5 uM, Vero E6, replicates) was 94.6%. For the same compound, the inhibition at 10 µM (SARS-CoV-2 (B.1); Severe acute respiratory syndrome coronavirus 2, Vero C1008, B.1, 10 uM, Vero E6, replicates) was 98.6%, the inhibition at 50 µM (SARS-CoV-2 (B.1); Severe acute respiratory syndrome coronavirus 2, Vero C1008, B.1, 50 uM, Vero E6, replicates) was 99.2% and the EC90 (SARS-CoV-2 (B.1); [6]) was 4.25 µM. It also gave an EC50 (SARS-CoV-2 (B.1); Severe acute respiratory syndrome coronavirus 2, Vero C1008, MOI 0.05, 48 h) of 2.28 µM, a CC50 at 48 h [2] of over 50 µM and an EC50 ([3]; Severe acute respiratory syndrome coronavirus 2, Vero C1008, 48 h, read-out: EC50 in Vero E6 cells, SARS-CoV-2 (Omicron, B.1.1.529)) of 1.24 µM. For the same compound, the inhibition at 0.069 µM ([3]; Severe acute respiratory syndrome coronavirus 2, Vero C1008, Omicon, 0.069 uM, Vero E6, replicates) was 0%, the inhibition at 5 µM ([3]; Severe acute respiratory syndrome coronavirus 2, Vero C1008, Omicon, 5 uM, Vero E6, replicates) was 96.9% and the inhibition at 10 µM ([3]; Severe acute respiratory syndrome coronavirus 2, Vero C1008, Omicon, 10 uM, Vero E6, replicates) was 100%. It also gave an EC90 [3, 6] of 5.69 µM, an EC50 ([4]; Severe acute respiratory syndrome coronavirus 2, Vero C1008, 48 h, read-out: EC50 in Vero E6 cells, SARS-CoV-2 (Delta, B.1.617.2)) of 1.65 µM and an inhibition at 0.01 µM ([4]; Severe acute respiratory syndrome coronavirus 2, Vero C1008, delta, 0.01 uM, Vero E6, replicates) of 0%. For the same compound, the inhibition at 0.1 µM ([4]; Severe acute respiratory syndrome coronavirus 2, Vero C1008, delta, 0.1 uM, Vero E6, replicates) was 0%, the inhibition at 0.25 µM ([4]; Severe acute respiratory syndrome coronavirus 2, Vero C1008, delta, 0.25 uM, Vero E6, replicates) was 0% and the inhibition at 0.5 µM ([4]; Severe acute respiratory syndrome coronavirus 2, Vero C1008, delta, 0.5 uM, Vero E6, replicates) was 0%. For the same compound, the inhibition at 1 µM ([4]; Severe acute respiratory syndrome coronavirus 2, Vero C1008, delta, 1 uM, Vero E6, replicates) was 55.7%, the inhibition at 2 µM ([4]; Severe acute respiratory syndrome coronavirus 2, Vero C1008, delta, 2 uM, Vero E6, replicates) was 58% and the inhibition at 5 µM ([4]; Severe acute respiratory syndrome coronavirus 2, Vero C1008, delta, 5 uM, Vero E6, replicates) was 77.1%. It also gave an inhibition at 10 µM ([4]; Severe acute respiratory syndrome coronavirus 2, Vero C1008, delta, 10 uM, Vero E6, replicates) of 99.2%, an inhibition at 50 µM ([4]; Severe acute respiratory syndrome coronavirus 2, Vero C1008, delta, 50 uM, Vero E6, replicates) of 99.9% and an EC90 ([4]; Severe acute respiratory syndrome coronavirus 2, Vero C1008, read-out: EC90 (Confidence 95%), Vero-E6, Delta B.1.617.2) of 7.34 µM. The “% Inhibition” value ([4]; 1 uM, Vero E6, replicates) was 43.4129%, the “% Inhibition” value ([4]; 2 uM, Vero E6, replicates) was 46.5254% and the “% Inhibition” value ([4]; 5 uM, Vero E6, replicates) was 77.4749%. For the same compound, the “% Inhibition” value ([4]; 10 uM, Vero E6, replicates) was 96.2382%, the “% Inhibition” value ([4]; 50 uM, Vero E6, replicates) was 99.3849% and the “% Inhibition” value ([5]; 2.5 uM) was 31.5626% and 77.85% and 88.9906%. For the same compound, the “% Inhibition” value ([5]; 5 uM) was 96.6907% and 99.2675% and the “% Inhibition” value ([5]; 10 uM) was 99.9718% and 99.9679%.
